The values below come from US7304091B2, “Statin-like compounds” (Myco TeO A/S, priority 2001, dated 2007).

The assay relates to male White rabbits. Kind of assay: Test of cholesterol-lowering effect in rabbits fed 1% cholesterol diet. The format is in vivo. The protocol: The cholesterol-lowering effect of Statan A was compared against a control in male White rabbits (purchased from Hvidesten, DK). The rabbits were housed in individual stainless steel cages with free access to water. The rabbits were divided into groups with similar baseline values of plasma cholesterol, which groups received: • 1) 5 mg/day PD498 (n=2)(Statan A), • 2) control group (n=4).
The rabbits were treated for 3 days. All animals were fed daily with 100 g of a standard rabbit diet (Altromin, Lage, Germany) containing 1% cholesterol. All test drugs were added to the diet. Remaining food were weighed.
Blood samples for cholesterol determination were drawn at baseline and at the three following days. Blood samples were taken from the marginal ear vein and the cholesterol determination was done the same day by enzymatic […] methods, using a commercially available kit (CHOD-PAP, Roche), on a COBAS MIRA auto-analyzer (Roche, Basle, CH).
Ten kg 1% cholesterol chow: 100 g cholesterol is dissolved in 500 g corn oil by heating to 40° C. […]

As for `Cc1ccc2cccc(O)c2c1CCC1CC(O)CC(=O)O1` (centres unmarked) [Statan A], the “Total plasma cholesterol levels compared to the control group” value (male White rabbits, 5 mg/day in 1% cholesterol diet, treated for 3 days, blood at baseline and three following days, FIG. 2) is given as “consistently lower”.
Turning to `Cc1ccc2ccccc2c1CC[C@@H]1C[C@@H](O)CC(=O)O1` [solistatin], under “rabbits, same method as Example 13”, the cholesterol-lowering effect result is reported as “had cholesterol-lowering effect”.
